According to PubChem BioAssay AID2060502 (Molecular Pharmacology Branch, DTP, NCI, 2025):
Each block holds one compound with its values, some of them ahead of it.

Tested on: 885724-159-R-J1-PDC complex spheroid viability
Assay: Anticancer human tumor 885724-159-R-J1-PDC patient-derived pancreatic adenocarcinoma cell line growth inhibition [GQUAD]
Settings: for IC50: curve of first compound; for viability, T/C: stronger effect = lower value
Procedure, shortened: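 Viability of tumor cells grown as complex spheroids with endothelial and stromal cells, exposed to drug combinations. Top concentration at or near clinical Cmax (else 10 microM), diluted in half-log increments.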

[1] = second compound 0.0316 µM, first compound 0.0316 µM
[2] = second compound 0.0316 µM, first compound 0.1 µM
[3] = second compound 0.0316 µM, first compound 0.316 µM
[4] = second compound 0.0316 µM, first compound 1 µM
[5] = second compound 0.0316 µM, first compound 3.16 µM
[6] = second compound 0.0316 µM, first compound 10 µM
[7] = second compound 0.1 µM, first compound 0.0316 µM
[8] = second compound 0.1 µM, first compound 0.1 µM
[9] = second compound 0.1 µM, first compound 0.316 µM
[10] = second compound 0.1 µM, first compound 1 µM
[11] = second compound 0.1 µM, first compound 3.16 µM
[12] = second compound 0.1 µM, first compound 10 µM
[13] = second compound 0.316 µM, first compound 0.0316 µM
[14] = second compound 0.316 µM, first compound 0.1 µM
[15] = second compound 0.316 µM, first compound 0.316 µM
[16] = second compound 0.316 µM, first compound 1 µM
[17] = second compound 0.316 µM, first compound 3.16 µM
[18] = second compound 0.316 µM, first compound 10 µM
[19] = second compound 1 µM, first compound 0.0316 µM
[20] = second compound 1 µM, first compound 0.1 µM
[21] = second compound 1 µM, first compound 0.316 µM
[22] = second compound 1 µM, first compound 1 µM
[23] = second compound 1 µM, first compound 3.16 µM
[24] = second compound 1 µM, first compound 10 µM
[25] = second compound 3.16 µM, first compound 0.0316 µM
[26] = second compound 3.16 µM, first compound 0.1 µM
[27] = second compound 3.16 µM, first compound 0.316 µM
[28] = second compound 3.16 µM, first compound 1 µM
[29] = second compound 3.16 µM, first compound 3.16 µM
[30] = second compound 3.16 µM, first compound 10 µM
[31] = second compound 10 µM, first compound 0.0316 µM
[32] = second compound 10 µM, first compound 0.1 µM
[33] = second compound 10 µM, first compound 0.316 µM
[34] = second compound 10 µM, first compound 1 µM
[35] = second compound 10 µM, first compound 3.16 µM
[36] = second compound 10 µM, first compound 10 µM
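Also: spheroids exposed to agents for seven days before readout.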
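For viability, T/C in this document: percent of vehicle control viability where 100% = DMSO wells.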

SMILES: CC1COCCN1c1cc(C2(S(C)(=N)=O)CC2)nc(-c2ccnc3[nH]ccc23)n1 (stereo not drawn) + CN(C)c1ccc(Nc2c3ccc(NC(=O)CCN4CCCC4)cc3nc3cc(NC(=O)CCN4CCCC4)ccc23)cc1
IC50 (second compound 0.0316 µM): > 10 µM
IC50 (second compound 0.1 µM): > 10 µM
IC50 (second compound 0.316 µM): > 10 µM
IC50 (second compound 1 µM): > 10 µM
IC50 (second compound 3.16 µM): > 10 µM
IC50 (second compound 10 µM): > 10 µM
viability, T/C [1]: 102%
viability, T/C [2]: 106%
viability, T/C [3]: 98.1%
viability, T/C [4]: 98.6%
viability, T/C [5]: 69.1%
viability, T/C [6]: 79.6%
viability, T/C [7]: 87.7%
viability, T/C [8]: 93.7%
viability, T/C [9]: 82%
viability, T/C [10]: 87%
viability, T/C [11]: 79.3%
viability, T/C [12]: 75.3%
viability, T/C [13]: 84.5%
viability, T/C [14]: 89.6%
viability, T/C [15]: 92.3%
viability, T/C [16]: 75%
viability, T/C [17]: 80%
viability, T/C [18]: 63.9%
viability, T/C [19]: 89.4%
viability, T/C [20]: 74.3%
viability, T/C [21]: 76.3%
viability, T/C [22]: 73.2%
viability, T/C [23]: 76.8%
viability, T/C [24]: 53%
viability, T/C [25]: 76.3%
viability, T/C [26]: 65.1%
viability, T/C [27]: 65.3%
viability, T/C [28]: 64%
viability, T/C [29]: 73%
viability, T/C [30]: 51.6%
viability, T/C [31]: 71.9%
viability, T/C [32]: 81.8%
viability, T/C [33]: 85.4%
viability, T/C [34]: 67%
viability, T/C [35]: 71.9%
viability, T/C [36]: 63%

SMILES: C#Cc1c(F)ccc2cc(O)cc(-c3ncc4c(N5CC6CCC(C5)N6)nc(OCC56CCCN5CC(F)C6)nc4c3F)c12 (stereo not drawn) + CN(C)c1ccc(Nc2c3ccc(NC(=O)CCN4CCCC4)cc3nc3cc(NC(=O)CCN4CCCC4)ccc23)cc1
IC50 (second compound 0.0316 µM): 4.17 µM
IC50 (second compound 0.1 µM): 4.29 µM
IC50 (second compound 0.316 µM): 5.21 µM
IC50 (second compound 1 µM): 4.33 µM
IC50 (second compound 3.16 µM): 2.94 µM
IC50 (second compound 10 µM): 2.13 µM
viability, T/C [1]: 92.1%
viability, T/C [2]: 112%
viability, T/C [3]: 94.8%
viability, T/C [4]: 86.9%
viability, T/C [5]: 58.8%
viability, T/C [6]: 22.8%
viability, T/C [7]: 114%
viability, T/C [8]: 100%
viability, T/C [9]: 98.3%
viability, T/C [10]: 86.2%
viability, T/C [11]: 56.7%
viability, T/C [12]: 26.1%
viability, T/C [13]: 95%
viability, T/C [14]: 100%
viability, T/C [15]: 96.6%
viability, T/C [16]: 79.2%
viability, T/C [17]: 68.1%
viability, T/C [18]: 28.7%
viability, T/C [19]: 89.4%
viability, T/C [20]: 72.7%
viability, T/C [21]: 87.8%
viability, T/C [22]: 79.3%
viability, T/C [23]: 59.5%
viability, T/C [24]: 24.6%
viability, T/C [25]: 78.3%
viability, T/C [26]: 68.1%
viability, T/C [27]: 69.5%
viability, T/C [28]: 60.9%
viability, T/C [29]: 51.4%
viability, T/C [30]: 24.7%
viability, T/C [31]: 64.8%
viability, T/C [32]: 68.7%
viability, T/C [33]: 58%
viability, T/C [34]: 84.2%
viability, T/C [35]: 40.2%
viability, T/C [36]: 2.3%

SMILES: Nc1ccn(C2OC(CO)C(O)C2(F)F)c(=O)n1 (stereo not drawn) + Cc1[nH]c2ccc(F)cc2c1-c1nc2c3cccnc3c3ncccc3c2[nH]1
IC50 (second compound 0.0316 µM): > 10 µM
IC50 (second compound 0.1 µM): > 10 µM
IC50 (second compound 0.316 µM): > 10 µM
IC50 (second compound 1 µM): > 10 µM
IC50 (second compound 3.16 µM): < 0.0316 µM
IC50 (second compound 10 µM): > 10 µM
viability, T/C [1]: 92.8%
viability, T/C [2]: 100%
viability, T/C [3]: 75.2%
viability, T/C [4]: 75.6%
viability, T/C [5]: 75.3%
viability, T/C [6]: 80.8%
viability, T/C [7]: 94.3%
viability, T/C [8]: 82.2%
viability, T/C [9]: 71.4%
viability, T/C [10]: 79.5%
viability, T/C [11]: 73.8%
viability, T/C [12]: 86.6%
viability, T/C [13]: 93.6%
viability, T/C [14]: 89.3%
viability, T/C [15]: 77.3%
viability, T/C [16]: 72.2%
viability, T/C [17]: 79.3%
viability, T/C [18]: 69.3%
viability, T/C [19]: 83.3%
viability, T/C [20]: 67.6%
viability, T/C [21]: 65.8%
viability, T/C [22]: 56.6%
viability, T/C [23]: 70.7%
viability, T/C [24]: 55%
viability, T/C [25]: 43.3%
viability, T/C [26]: 26.1%
viability, T/C [27]: 28.3%
viability, T/C [28]: 22.6%
viability, T/C [29]: 26.1%
viability, T/C [30]: 20.3%
viability, T/C [31]: 67.7%
viability, T/C [32]: 72.9%
viability, T/C [33]: 59%
viability, T/C [34]: 58.4%
viability, T/C [35]: 61.2%
viability, T/C [36]: 62%

IC50 (second compound 0.0316 µM): > 10 µM
IC50 (second compound 0.1 µM): > 10 µM
IC50 (second compound 0.316 µM): > 10 µM
IC50 (second compound 1 µM): > 10 µM
IC50 (second compound 3.16 µM): 6.48 µM
IC50 (second compound 10 µM): 5.27 µM
SMILES: CC(C)n1c(=O)n(C)c2cnc3cc(F)c(-c4ccc(OCCCN5CCCCC5)nc4)cc3c21 + Cc1cnc(CNC(=O)c2c(=O)c3ccc(N4CCCN(C)CC4)nc3n3c2sc2ccccc23)cn1
viability, T/C [1]: 91.3%
viability, T/C [2]: 94.1%
viability, T/C [3]: 95.3%
viability, T/C [4]: 114%
viability, T/C [5]: 77.6%
viability, T/C [6]: 65.7%
viability, T/C [7]: 108%
viability, T/C [8]: 107%
viability, T/C [9]: 96.1%
viability, T/C [10]: 106%
viability, T/C [11]: 93.6%
viability, T/C [12]: 67.2%
viability, T/C [13]: 92.6%
viability, T/C [14]: 93%
viability, T/C [15]: 88.5%
viability, T/C [16]: 108%
viability, T/C [17]: 81.2%
viability, T/C [18]: 64.2%
viability, T/C [19]: 82.5%
viability, T/C [20]: 87.1%
viability, T/C [21]: 90.5%
viability, T/C [22]: 94.6%
viability, T/C [23]: 78.5%
viability, T/C [24]: 53.1%
viability, T/C [25]: 73.2%
viability, T/C [26]: 73.4%
viability, T/C [27]: 78.8%
viability, T/C [28]: 68.3%
viability, T/C [29]: 67.8%
viability, T/C [30]: 39.9%
viability, T/C [31]: 76.1%
viability, T/C [32]: 71.1%
viability, T/C [33]: 73.8%
viability, T/C [34]: 70.8%
viability, T/C [35]: 61.7%
viability, T/C [36]: 35.3%
